Assay results from patent US11254666B2, “Compound as GLS1 inhibitor” (MEDSHINE DISCOVERY INC., priority 2017, dated 2022).

How the values were obtained:
[1] = biological target: T1, GLS1 (Homo sapiens, UniProt O94925); test: Activity test of compounds in GLS1 coupling reaction system; type: biochemical; conditions: 2 nM GLS1, 4.5 mM L-glutamine, 1 hour pre-incubation at 23° C.
T1 sequence (O94925 55-669): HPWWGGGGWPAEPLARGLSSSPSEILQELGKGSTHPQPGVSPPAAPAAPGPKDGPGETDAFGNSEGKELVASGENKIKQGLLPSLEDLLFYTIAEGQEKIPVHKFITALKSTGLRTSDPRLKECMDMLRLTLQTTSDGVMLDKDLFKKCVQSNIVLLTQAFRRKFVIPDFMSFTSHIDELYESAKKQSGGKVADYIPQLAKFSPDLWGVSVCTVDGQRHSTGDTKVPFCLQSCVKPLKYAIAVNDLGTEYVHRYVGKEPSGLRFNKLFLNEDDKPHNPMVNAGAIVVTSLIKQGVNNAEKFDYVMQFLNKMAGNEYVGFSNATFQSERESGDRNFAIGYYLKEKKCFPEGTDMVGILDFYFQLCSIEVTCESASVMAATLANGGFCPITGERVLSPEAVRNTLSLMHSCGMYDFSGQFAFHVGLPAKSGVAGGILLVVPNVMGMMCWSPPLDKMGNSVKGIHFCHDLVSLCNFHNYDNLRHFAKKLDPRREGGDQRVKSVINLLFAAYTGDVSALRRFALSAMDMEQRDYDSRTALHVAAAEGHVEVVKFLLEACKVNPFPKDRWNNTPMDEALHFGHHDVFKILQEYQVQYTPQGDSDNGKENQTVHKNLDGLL
Description: Experimental Example 1: Activity Test of Compounds in GLS1 Coupling Reaction System
Preparation of Reaction Reagents: Relevant reagents should be prepared on the day of the experiment: Preparation of 1× assay buffer The final concentration of each component in the final experimental buffer was: 50 mM Tris-HCl pH 8.0, 0.25 mM EDTA, 150 mM K2HPO4, 0.1 mg/mL BSA, 1 mM DTT, 0.01% Triton X-100 Preparation of 2× experimental component solutions: The reagents were taken out and placed on ice to melt naturally for later use; 1× assay buffer was used to prepare “solution A” (solution A contains: L-glutamine, NAD+(nicotinamide adenine dinucleotide) and GLDH (glutamic acid dehydrogenase)). The final concentrations of each component in the final experimental reaction systemwere 4.5 mM L-glutamine, 2 mM NAD+ 4 U/mL GLDH. 1× assay buffer was used to prepare “solution B” - - - 2× enzyme solution (solution B contains GLS1 enzyme). The final concentration of GLS1 in the final experimental reaction system was 2 nM. Experimental Steps: The experiment plates are prepared by Labcyte ECHO before the experiment, which contain the compounds gradient concentrations and the corresponding DMSO solution: The experimental plates were taken out, and 20 μL of solution B (enzyme GLS1 solution) was added to columns 2 to 23 of the experimental plate, then 20 μL assay buffer was added to columns 1 and 24 as Min control in the experimental system. Then the experimental plates were centrifuged at 1000 rpm for 30 seconds; and sealed the membrane, and the plates were incubated at 23° C. for 1 hour. After the incubation of 1 hour, 20 μL of solution A was added to columns 1 to 24 of the experimental plates (ie, Samples were added to the whole plate). The experimental plates were centrifuged at 1000 rpm for 30 seconds. The experimental plates were placed on the SpectraMax 340PC, and the plates were continuously read for 20 minutes in dynamic mode (the reading interval was set to 1 minute).

[2] = Evaluation of compounds pharmacokinetics in mice; type: in vivo; conditions: mouse, plasma, female C57BL/6 mice
Description: Experimental Example 2: Evaluation of Compounds Pharmacokinetics
Experimental purpose: To test the pharmacokinetics of compounds in mice
C57BL/6 mice (female, 7-9 weeks old, Shanghai SLAC)
Experimental procedure: C57BL/6 mice (C57BL/6) were administered a clear solution obtained by dissolving test compounds via tail vein injection and intragastric administration (overnight fast, 7-9 weeks old). After administration of the test compounds, the intravenous group was at 0.0833, 0.25, 0.5, 1, 2, 4, 6, 8 and 24 h, and the gavage group was at 0.0833, 0.25, 0.5, 1, 2, 4, 6, 8 and 24, blood was collected from the mandibular vein and centrifuged to obtain plasma. LC-MS/MS method was used to determine blood drug concentration, and WinNonlin™ Version 6.3 pharmacokinetic software was used to calculate the relevant pharmacokinetic parameters by non-compartment model linear logarithmic trapezoid method.

Row | Structure (SMILES) | IC50 [1] [µM] | also measured
1 | O=C(Cc1cc(Cl)ccc1F)Nc1nnc(NC2CCN(c3cccnn3)CC2)s1 [Example 8] | 0.2 to 1 | 
2 | CO[C@H](C(=O)Nc1nnc(NC2CCN(c3cccnn3)CC2)s1)c1cccnc1 [Example 16] | 0.2 to 1 | 
3 | O=C(Cc1cc(OC(F)(F)F)ccc1F)Nc1nnc(NC2CCN(c3cccnn3)CC2)s1 [Example 9] | 0.2 to 1 | 
4 | O=C(Cc1cccnc1)Nc1nnc(NC2CCN(c3cccnn3)CC2)s1 [Example 5] | 0.2 to 1 | 
5 | O=C(Cc1cc(Cl)ccc1Cl)Nc1nnc(NC2CCN(c3cccnn3)CC2)s1 [Example 7] | 0.2 to 1 | 
6 | CO[C@H](C(=O)Nc1nnc(NC2CCN(c3cccnn3)CC2)s1)c1cc(OC(F)(F)F)ccc1F [Example 17] | < 0.2 | bioavailability ([2]; po, intragastric vs tail vein): 91.3%; half-life ([2]; po, tail vein injection and intragastric administration, route and dose not given, read-out: T1/2 (half-life) (converted)): 2.52 h; AUC(0-inf) ([2]; route and dose not given): 26.1 µM·h; Cmax ([2]; route and dose not given, read-out: Cmax (maximum concentration)): 11.6 µM
